Data from ChEMBL document CHEMBL1201862, “PubChem BioAssay data set” (2004).
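Tested at 5 concentrations; 48 h exposure; 96-well plates; endpoints linearly interpolated, else capped at highest concentration. Here, GI50 denotes the concentration required for 50% inhibition of growth.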 Activity calls are given as the source filed them. Cut-off read from the data, not from the text of the source: active = GI50 up to about 1.1 µM and inactive = higher. Peptide text beside a SMILES is read from it. * marks the point of attachment. Boc = CC(C)(C)OC(=O)*

What was measured:
Experiment in all cases: NCI tumour cell line growth inhibition, 48 h
[1] = system: MOLT-4
[2] = system: A498
[3] = system: SF-539
[4] = system: CCRF-CEM
[5] = system: SNB-75
[6] = system: UO-31
[7] = system: RXF 393
[8] = system: MDA-MB-435
[9] = system: NCI-H522
[10] = system: TK-10
[11] = system: ACHN
[12] = system: NCI/ADR-RES
[13] = system: UACC-257
[14] = system: SK-MEL-2
[15] = system: U-251
[16] = system: HCC 2998
[17] = system: Malme-3M
[18] = system: SNB-19
[19] = system: OVCAR-5

Measured: GI50

COC(=O)C1(Cc2cccc(C)c2)Cc2c(C)cccc2C1=O (stereo not drawn)
inactive: [1] 36.8 µM | [2] 34 µM | [3] 38.4 µM | [4] 61.8 µM | [5] 43.3 µM | [6] 42.6 µM | [7] 29.4 µM | [8] 14.1 µM | [9] 22.6 µM | [10] 89.3 µM | [11] > 100 µM | [12] 24 µM | [13] 82.8 µM | [14] 32.7 µM | [15] 38.7 µM | [16] 55.5 µM | [17] 33.9 µM | [18] 98.9 µM | [19] > 100 µM

O=C1NCC2(CCN(CC3COc4ccccc4O3)CC2)N1c1ccccc1 (stereo not drawn)
inactive: [1] 71.1 µM | [2] > 100 µM | [3] > 100 µM | [4] > 100 µM | [5] > 100 µM | [6] > 100 µM | [7] > 100 µM | [8] > 100 µM | [9] > 100 µM | [10] > 100 µM | [11] > 100 µM | [12] > 100 µM | [13] > 100 µM | [14] > 100 µM | [15] > 100 µM | [16] > 100 µM | [17] > 100 µM | [18] > 100 µM | [19] > 100 µM

CCC1=[N+](CC)CCN1CC
inactive: [1] > 100 µM | [2] > 100 µM | [3] > 100 µM | [4] > 100 µM | [5] > 100 µM | [6] > 100 µM | [7] > 100 µM | [8] > 100 µM | [9] > 100 µM | [10] > 100 µM | [11] > 100 µM | [12] > 100 µM | [13] > 100 µM | [14] > 100 µM | [15] > 100 µM | [16] > 100 µM | [17] > 100 µM | [18] > 100 µM | [19] > 100 µM

COC(=O)C(Cc1ccccc1)NC(=O)C(CS)NC(=O)OC(C)(C)C (stereo not drawn) (Boc-Cys-Phe-OMe; configuration not given here)
inactive: [1] 8.55 µM | [2] > 100 µM | [3] > 100 µM | [4] 21.8 µM | [5] > 100 µM | [6] 74.1 µM | [7] 26 µM | [8] > 100 µM | [9] > 100 µM | [10] > 100 µM | [11] > 100 µM | [12] > 100 µM | [13] > 100 µM | [14] > 100 µM | [15] > 100 µM | [16] > 100 µM | [17] > 100 µM | [18] > 100 µM | [19] > 100 µM

O=[N+]([O-])c1ccc2c(c1)nc(Cc1ccc(Cl)cc1)n2C[C@@H]1CCCN2CCCCC12 (stereo partly drawn)
inactive: [1] 10.9 µM | [2] 6.05 µM | [3] 18.4 µM | [4] 11.8 µM | [5] 15 µM | [6] 1.58 µM | [7] 11.6 µM | [8] 14.3 µM | [9] 12.3 µM | [10] 17.6 µM | [11] 13.4 µM | [12] 13.9 µM | [13] 15.3 µM | [14] 15.8 µM | [15] 18.6 µM | [16] 7.64 µM | [17] 9.16 µM | [18] 22.8 µM | [19] 15.5 µM

CCOC(=O)C(Cc1c2ccccc2cc2ccccc12)(NC(C)=O)C(=O)OCC
inactive: [1] 25.8 µM | [2] 55.5 µM | [3] > 64.6 µM | [4] 56.4 µM | [5] > 19.8 µM | [6] > 85.9 µM | [7] 42.7 µM | [8] > 72.4 µM | [9] 64 µM | [10] > 100 µM | [11] > 63.1 µM | [12] > 50.2 µM | [13] > 100 µM | [14] > 100 µM | [15] > 80.5 µM | [16] > 100 µM | [17] > 100 µM | [18] > 78.5 µM | [19] > 100 µM

CCCc1cn2c(/C=N/N=C(N)N)c(-c3c(OC)ccc(OC)c3[N+](=O)[O-])nc2s1
inactive: [1] 1.94 µM | [2] 21.2 µM | [3] 16.9 µM | [4] 2.84 µM | [5] 16.3 µM | [6] 20.4 µM | [7] 9.55 µM | [8] 5.42 µM | [9] 8.79 µM | [10] 16.8 µM | [11] 18 µM | [12] 19.8 µM | [13] 7.08 µM | [14] 16.7 µM | [15] 4.74 µM | [16] 2.57 µM | [17] 10.3 µM | [18] 18.4 µM | [19] 15.6 µM
